Patent publication US7138361B2, “Herbicidal heterocycles” (E. I. du Pont de Nemours and Company, priority 2000, dated 2006)

Tests used:
Format in all cases: in vivo
[1] = test system: Surinam grass (Brachiaria decumbens); test: Test B postemergence; conditions: 13 to 15 days
In short: (§1)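 Pre: seeded pots sprayed, chemical in non-phytotoxic solvent/surfactant mix. Post: plants 2–18 cm, 1–4 leaf, same formulation. Greenhouse 13–15 d; visual % control vs untreated, 0–100 scale.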

[2] = test system: barnyardgrass (Echinochloa crus-galli); test: Test B postemergence; conditions: 13 to 15 days
In short: as §1

[3] = test system: blackgrass (Alopecurus myosuroides); test: Test B postemergence; conditions: 13 to 15 days
In short: as §1

[4] = test system: corn (Zea mays); test: Test B postemergence; conditions: 13 to 15 days
In short: as §1

[5] = test system: giant foxtail (Setaria faberii); test: Test B postemergence; conditions: 13 to 15 days
In short: as §1

[6] = test system: morning glory (Ipomoea hederacea); test: Test B postemergence; conditions: 13 to 15 days
In short: as §1

[7] = test system: pigweed (Amaranthus retroflexus); test: Test B postemergence; conditions: 13 to 15 days
In short: as §1

[8] = test system: velvetleaf (Abutilon theophrasti); test: Test B postemergence; conditions: 13 to 15 days
In short: as §1

[9] = test system: wheat (Triticum aestivum); test: Test B postemergence; conditions: 13 to 15 days
In short: as §1

[10] = test system: Surinam grass (Brachiaria decumbens); test: Test B preemergence
In short: as §1

[11] = test system: barnyardgrass (Echinochloa crus-galli); test: Test B preemergence
In short: as §1

[12] = test system: cocklebur (Xanthium strumarium); test: Test B preemergence
In short: as §1

[13] = test system: corn (Zea mays); test: Test B preemergence
In short: as §1

[14] = test system: crabgrass (Digitaria sanguinalis); test: Test B preemergence
In short: as §1

[15] = test system: giant foxtail (Setaria faberii); test: Test B preemergence
In short: as §1

[16] = test system: lambsquarters (Chenopodium album); test: Test B preemergence
In short: as §1

[17] = test system: morning glory (Ipomoea hederacea); test: Test B preemergence
In short: as §1

[18] = test system: pigweed (Amaranthus retroflexus); test: Test B preemergence
In short: as §1

[19] = test system: rice (Oryza saliva); test: Test B preemergence
In short: as §1

[20] = test system: velvetleaf (Abutilon theophrasti); test: Test B preemergence; conditions: Preemergence, Rate 500 g/ha; scale 0 to 100, 0 no effect, 100 complete control
In short: as §1

[21] = test system: barnyardgrass (Echinochloa crus-galli); test: Test C flooded paddy test; conditions: for Barnyardgrass plant response rating: Flooded Paddy, scale 0 to 100, 0 no effect, 100 complete control; for Plant response rating, Barnyardgrass: flooded paddy test, scale 0 to 100 (0 no effect, 100 complete control)
In short: (§2)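 Visually assessed vs untreated controls 12–14 d post-treatment (greenhouse). Flooded paddy plants were at the 2-leaf stage; scale 0 = no effect, 100 = complete control.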

[22] = test system: duck salad (Heteranthera limosa); test: Test C flooded paddy test; conditions: for Ducksalad plant response rating: Flooded Paddy, scale 0 to 100, 0 no effect, 100 complete control
In short: as §2

[23] = test system: rice (Oryza saliva); test: Test C flooded paddy test; conditions: for Rice plant response rating: Flooded Paddy, scale 0 to 100, 0 no effect, 100 complete control; for Plant response rating, Rice: flooded paddy test, scale 0 to 100 (0 no effect, 100 complete control)
In short: as §2

[24] = test system: smallflower flatsedge (Cyperus difformis); test: Test C flooded paddy test; conditions: for Flatsedge plant response rating: Flooded Paddy, scale 0 to 100, 0 no effect, 100 complete control; for Plant response rating, Flatsedge: flooded paddy test, scale 0 to 100 (0 no effect, 100 complete control)
In short: as §2

[25] = test system: Nightshade; test: Test C preemergence; conditions: Rate 250 g/ha, visual evaluation after 12 to 14 days
[26] = test system: Sunflower; test: Test C preemergence; conditions: Rate 125 g/ha, scale 0 to 100, 0 no effect, 100 complete control
[27] = Rate 125 g/ha, scale 0 (no effect) to 100 (complete control)
[28] = Rate 500 g/ha, scale 0 to 100, 0 is no effect, 100 is complete control
[29] = Preemergence, Rate 500 g/ha, scale 0 to 100, 0 no effect, 100 complete control
[30] = preemergence, Rate 125 g/ha, scale of 0 to 100 where 0 is no effect and 100 is complete control, 13 to 15 days

O=C1C(n2ccc(C3CCCCC3)n2)SCN1c1cccc(C(F)(F)F)c1 (centres unmarked) [Compound 52]
30: Plant response rating, Pigweed [18, 29] | Plant response rating, Barnyardgrass ([21]; Rate 62 g/ha) | Plant response rating (0 to 100), Nightshade [25]
0: Plant response rating, Surinam grass [1, 27] | Plant response rating, Surinam grass [1, 28] | Plant response rating, Barnyardgrass [2, 27] | Plant response rating, Barnyardgrass [2, 28] | Plant response rating, Blackgrass [3, 27] | Plant response rating, Blackgrass [3, 28] | Plant response rating, Foxtail, Giant [5, 27] | Plant response rating, Foxtail, Giant [5, 28] | Plant response rating, Morningglory [6, 27] | Plant response rating, Morningglory [6, 28] | Plant response rating, Pigweed [7, 27] | Plant response rating, Pigweed [7, 28] | Plant response rating, Velvetleaf [8, 27] | Plant response rating, Velvetleaf [8, 28] | Plant response rating, Wheat [9, 27] | Plant response rating, Wheat [9, 28] | Plant response rating, Surinam grass [10, 29] | Plant response rating, Surinam grass [10, 30] | Plant response rating, Barnyardgrass [11, 30] | Plant response rating, Cocklebur [12, 29] | Plant response rating, Cocklebur [12, 30] | Plant response rating, Corn [13, 30] | Plant response rating, Morningglory [17, 29] | Plant response rating, Morningglory [17, 30] | Plant response rating, Pigweed [18, 30] | Plant response rating, Rice [19, 29] | Plant response rating, Rice [19, 30] | Plant response rating, Velvetleaf [20] | Rice plant response rating ([23]; Rate 250 g/ha) | Plant response rating, Rice ([23]; Rate 62 g/ha) | Plant response rating, Rice ([23]; Rate 125 g/ha) | Plant response rating, Sunflower [26]
90: Plant response rating, Foxtail, Giant [15, 30] | Plant response rating, Flatsedge ([24]; Rate 62 g/ha) | Plant response rating, Flatsedge ([24]; Rate 125 g/ha)
40: Ducksalad plant response rating ([22]; Rate 250 g/ha)
60: Plant response rating, Barnyardgrass ([21]; Rate 125 g/ha) | Rice plant response rating ([23]; Rate 500 g/ha)
20: Plant response rating, Corn [4, 27] | Plant response rating, Corn [4, 28] | Plant response rating, Corn [13, 29] | Plant response rating, Ducksalad ([22]; flooded paddy test, Rate 62 g/ha, scale 0 to 100 (0 no effect, 100 complete control))
100: Plant response rating, Barnyardgrass [11, 29] | Plant response rating, Crabgrass [14, 29] | Plant response rating, Crabgrass [14, 30] | Plant response rating, Foxtail, Giant [15, 29] | Plant response rating, Lambsquarters [16, 29] | Plant response rating, Lambsquarters [16, 30] | Barnyardgrass plant response rating ([21]; Rate 500 g/ha) | Ducksalad plant response rating ([22]; Rate 500 g/ha) | Flatsedge plant response rating ([24]; Rate 250 g/ha) | Flatsedge plant response rating ([24]; Rate 500 g/ha)
70: Barnyardgrass plant response rating ([21]; Rate 250 g/ha)
